≈ marks a conversion by molar mass, not a printed value.

The nature of data set [1]: Cytotoxicity against human 9KB cells assessed as cell survival at 100 ug/ml relative to control. It counts as functional. The settings on record: read-out: Activity.
A short description of data set [2]: Cytotoxicity against human 9KB cells assessed as cell survival at 10 ug/ml relative to control. It counts as functional. The settings on record: read-out: Activity.
Data set [3] can be described thus: Toxicity in ip dosed mouse. It counts as organism-based. The settings on record: in vivo.
Data set [4] is described as follows: Cytotoxicity against human 9KB cells relative to control. Format: functional. The settings on record: read-out: ED50 (the source's name).
The next data set concerns P388. As to the kind of experiment: Cytotoxicity against mouse P388 cells relative to control. Format: functional.
Data set [5] can be described thus: Cytotoxicity against human 9KB cells in in-vivo based assay at 65 mg/kg relative to control. It counts as functional.

In the case of `COc1cc(O)c(C(=O)CCc2ccc(O)cc2)c(O)c1` [ASEBOGENIN], in data set [1], the viability at 100 µg/mL came to 0%. In data set [2], the viability at 10 µg/mL worked out at 100%.

For `O=C(CCc1ccc(O)c(O)c1)c1c(O)cc(O)cc1O`, in data set [1], the viability at 100 µg/mL came out at 0%. For the same compound, the viability at 10 µg/mL in data set [2] amounted to 95%.

On to `O=C(CCc1ccc(O)cc1)c1ccc(O)cc1`, for which the viability at 100 µg/mL in data set [1] was determined as 0%. Besides, in data set [2], the viability at 10 µg/mL was found to be 90%.

For the compound `O=C(CCc1ccc(O)cc1)c1ccccc1O`, the viability at 100 µg/mL in data set [1] came to 0%. Moreover, the viability at 10 µg/mL in data set [2] is 100%.

Consider `O=C(CCc1ccc(O)cc1)c1ccc(O)c(O)c1O`, for which, in data set [1], the viability at 100 µg/mL turned out to be 0%. The viability at 10 µg/mL in data set [2] was found to be 100%.

For `COc1cc(O)c(C(C)=O)c(O[C@@H]2O[C@H](CO)[C@@H](O)[C@H](O)[C@H]2O)c1` [PLEOSIDE], in data set [1], the viability at 100 µg/mL amounted to 39%. Further, the viability at 10 µg/mL in data set [2] was found to be 100%.

For `COc1cc(O)c(C(=O)CCc2ccccc2)c(OC)c1`, the viability at 100 µg/mL in data set [1] is 0%. In data set [2], the viability at 10 µg/mL is 59%.

As to `CC(=O)O[C@@H]1[C@H]2CC[C@H]3[C@@](C)(O)[C@@H]4C[C@H](O)C(C)(C)[C@@]4(O)[C@H](O)C[C@@]13C[C@@]2(C)O` [GRAYANOTOXIN I], the LD50 (commonly the dose at which mortality reaches 50%) in data set [3] came out at 1.3 mg/kg. Also, the EC50 in data set [4] was determined as 60 µg/mL (≈ 145 µM).

In the case of `O=C(CCc1ccc(O)cc1)c1cccc(O)c1`, in data set [1], the viability at 100 µg/mL came to 0%. The viability at 10 µg/mL in data set [2] worked out at 71%.

In the case of `CC(=O)c1c(O)cc(O)cc1O` [2,4,6-TRIHYDROXYACETOPHENONE], the viability at 100 µg/mL in data set [1] came to 29%. In addition, the viability at 10 µg/mL in data set [2] turned out to be 100%.

Regarding `O=C(CCc1ccc(O)cc1)c1c(O)cccc1O`, the viability at 100 µg/mL in data set [1] turned out to be 20%. Moreover, the viability at 10 µg/mL in data set [2] was 100%.

Regarding `COc1cc(O)c(Cc2ccccc2O)c(O)c1C(=O)CCc1ccccc1` [UVARETIN], in the data set with P388, the T/C (as a rule, the result in the treated group divided by that in the control group, in per cent) stood at 132%.

`COc1cc(O)c(C(=O)CCc2ccc(O)cc2)c(O[C@@H]2O[C@H](CO)[C@@H](O)[C@H](O)[C@H]2O)c1` [ASEBOTIN]: the viability at 100 µg/mL in data set [1] was determined as 100%. Besides, the viability at 10 µg/mL in data set [2] worked out at 100%.

Take `O=C(CCc1ccc(O)cc1)c1c(O)cc(O)cc1O[C@@H]1O[C@H](CO)[C@@H](O)[C@H](O)[C@H]1O` [PHLORIZIN]: in data set [1], the viability at 100 µg/mL was determined as 47%. Moreover, the viability at 10 µg/mL in data set [2] was 100%. The EC50 in data set [4] worked out at 100 µg/mL (≈ 229 µM).

Take `O=C(CCc1ccc(O)c(O)c1)c1ccccc1O`: the viability at 100 µg/mL in data set [1] is 0%. Further, the viability at 10 µg/mL in data set [2] was 100%.

As to `COc1cc(CCC(=O)c2ccccc2O)ccc1O`, in data set [1], the viability at 100 µg/mL came to 0%. In addition, the viability at 10 µg/mL in data set [2] was 76%.

For `COc1cc(O)c(C(C)=O)c(O)c1`, the viability at 100 µg/mL in data set [1] was determined as 0%. The viability at 10 µg/mL in data set [2] was found to be 0%. Moreover, the EC50 in data set [4] was found to be 4.7 µg/mL (≈ 25.8 µM).

For the compound `COc1cc(O)c(C(C)=O)c(OC)c1` [XANTHOXYLIN], the viability at 100 µg/mL in data set [1] was 0%. Also, the viability at 10 µg/mL in data set [2] was determined as 100%.

With `COc1ccc(C(=O)CCc2ccc(O)cc2)c(O)c1`, the viability at 100 µg/mL in data set [1] was 0%. In data set [2], the viability at 10 µg/mL was 100%.

Take `O=C(CCc1ccc(O)c(O)c1)c1ccc(O)c(O)c1O`: in data set [1], the viability at 100 µg/mL came out at 0%. Further, in data set [2], the viability at 10 µg/mL came to 0%. For the same compound, the EC50 in data set [4] came to 2.5 µg/mL (≈ 8.61 µM). The T/C in data set [5] was found to be 126%.

As for `O=C(CCc1ccc(O)cc1)c1c(O)cc(O)cc1O` [PHLORETIN], in data set [1], the viability at 100 µg/mL stood at 0%. For the same compound, the viability at 10 µg/mL in data set [2] amounted to 76%. Moreover, in data set [4], the EC50 came out at 28 µg/mL (≈ 102 µM).

For the compound `O=C(CCc1ccc(O)cc1)c1ccc(O)cc1O` [DAVIDIGENIN], the viability at 100 µg/mL in data set [1] is 0%. Besides, the viability at 10 µg/mL in data set [2] is 50%.

For `O=C(CCc1ccccc1)c1c(O)cc(O)cc1O`, the viability at 100 µg/mL in data set [1] worked out at 0%. Moreover, the viability at 10 µg/mL in data set [2] was found to be 100%.

Consider `COc1cc(C(=O)CCc2ccc(O)cc2)ccc1O`, for which, in data set [1], the viability at 100 µg/mL turned out to be 0%. In data set [2], the viability at 10 µg/mL was 57%.

Turning to `O=C(CCc1ccc(O)cc1)c1ccccc1`, the viability at 100 µg/mL in data set [1] was determined as 0%. Moreover, the viability at 10 µg/mL in data set [2] was 89%.

With `COc1ccc(CCC(=O)c2c(O)cc(O)cc2O)cc1O`, in data set [1], the viability at 100 µg/mL was 46%. In data set [2], the viability at 10 µg/mL came to 100%.

In the case of `COc1cc(CCC(=O)c2ccccc2)ccc1O`, the viability at 100 µg/mL in data set [1] was found to be 0%. The viability at 10 µg/mL in data set [2] came to 82%.

In the case of `CC(=O)c1ccc(O)c(O)c1O` [GALLACETOPHENONE], the viability at 100 µg/mL in data set [1] stood at 0%. Moreover, in data set [2], the viability at 10 µg/mL was determined as 81%.
